Test results reported in patent US10377741B2, “Substituted heteroaryl aldehyde compounds and methods for their use in increasing tissue oxygenation” (Global Blood Therapeutics, Inc., priority 2011, dated 2019).

Assays:
[1] = target: T1, purified Hemoglobin S (HbS) (Homo sapiens, UniProt P68871+P69905, E7V); experiment: Modulation of hemoglobin oxygen affinity: oxygen equilibrium curves (HEMOX) in purified HbS; type: biochemical, human (homozygous sickle cell patients); details: compound at 30 μM; 25 μM purified HbS, 45 min at 37° C.
T1 construct: HbS was purified by a modified procedure; from tissue; host or cells: blood of homozygous sickle cell patients (CHORI); for the polymerization assay purified by the CRO VIRUSYS
Procedure, shortened: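 HbS from homozygous sickle cell patient blood, 25 μM in HEMOX buffer pH 7.4, incubated 45 min at 37° C with compound (30 μM unless noted). Air-saturated then deoxygenated with N2; p50 from Hill fit; delta p50% = (control p50 − treated p50)/control p50 × 100.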

HbS/A = target: T2, HbS/A (Homo sapiens, UniProt P68871+P69905, E7V); experiment: R/T assay (relaxed-to-tense transition under deoxygenated conditions); type: biochemical, human (homozygous sickle cell patients); details: compound at 9 μM; 3 μM HbS/A; % R remaining vs no treatment
T2 construct: A mixture of HbS/A was purified from blood; from tissue; host or cells: blood of homozygous sickle cell patients (CHORI)
Experimental: A relaxed-to-tense transition assay (“R/T assay”) was used to determine the ability of substituted benzaldehyde compounds to maintain the high-oxygen affinity relaxed (R) state of hemoglobin under deoxygenated conditions. This ability can be expressed as a “delta R” value (i.e., the change in the time-period of the R state after hemoglobin is treated with a compound, as compared to the period without treatment with the compound). Delta R is the % R to remaining after the compounds treatment compared with no treatment (e.g. if R % without treatment is 8% while with treatment with a target compound is 48% R at 30 μM, then % R is 40% for that compound.
A mixture of HbS/A was purified from blood obtained from homozygous sickle cell patients though the Hemoglobinopathy Center at Children's Hospital Oakland Research Institute (CHORI) with Institutional Review Board approval. HbS/A (at a final concentration of 3 μM) was incubated for 1 hr at 37° C. in presence or absence of compounds in […] potassium phosphate buffer, pH=7.4 and 30 μM 2, 3 diphosphoglycerate (DPG) in 96 well plates in a final volume of 160 μl. Compounds were added at different concentrations (3 μM to 100 μM final concentrations). Plates were covered with a Mylar film. After incubation was completed the Mylar cover was removed and the plates were placed in a Spectrostar Nano plate reader previously heated at 37° C. Five minutes later, N2 (flow rate=20 L/min) was flowed through the spectrophotometer. Spectroscopic measurements (300 nm to 700 nm) were taken every 5 min for 2 hours. Data analysis was performed by using linear regression from the data retrieved for all wavelengths.
Table 4 below lists the delta R values where + indicates a delta R of between 0 and 30, ++ indicates a delta R of between 30 and 50, and +++ indicates a delta R of 50 or greater. Unless noted otherwise, the compounds in Table 2 were tested at 30 μM.

SMILES	delta p50% [1]	delta R (HbS/A)
COc1cc(C=O)c(OCc2cncc(C)c2)cn1 [Compound 43, 2-methoxy-5-((5-methylpyridin-3-yl)methoxy)isonicotinaldehyde]	++ (a delta p50% of between 30 and 50)	+ (a delta R of between 0 and 30)
COc1cc(C=O)c(OCc2ccc3ccccc3n2)cn1 [Compound 45, 2-methoxy-5-(quinolin-2-ylmethoxy)isonicotinaldehyde]	+++ (a delta p50% of 50 or greater)	++ (a delta R of between 30 and 50)
COc1cc(C=O)c(OCc2ccncc2)cn1 [Compound 46, 2-methoxy-5-(pyridin-4-ylmethoxy)isonicotinaldehyde]	++ (a delta p50% of between 30 and 50)	+ (a delta R of between 0 and 30)
COC(=O)c1cccn2cc(COc3cnc(OC)cc3C=O)nc12 [Compound 53, methyl 2-((4-formyl-6-methoxypyridin-3-yloxy)methyl)imidazo[1,2-a]pyridine-8-carboxylate]	++ (a delta p50% of between 30 and 50)	+ (a delta R of between 0 and 30)
COc1cc(C=O)c(OCc2cccnc2Br)cn1 [Compound 63, 5-((2-bromopyridin-3-yl)methoxy)-2-methoxyisonicotinaldehyde]	+++ (a delta p50% of 50 or greater)	++ (a delta R of between 30 and 50)
COc1cc(C=O)c(OCc2cncc(Br)c2)cn1 [Compound 66, 5-((5-bromopyridin-3-yl)methoxy)-2-methoxyisonicotinaldehyde]	++ (a delta p50% of between 30 and 50)	++ (a delta R of between 30 and 50)
COc1cc(C=O)c(OCc2cccc3c2cnn3C)cn1 [Compound 84, 2-methoxy-5-((1-methyl-1H-indazol-4-yl)methoxy)isonicotinaldehyde]	++ (a delta p50% of between 30 and 50)	++ (a delta R of between 30 and 50)
Cc1ccc(OCc2cccc3c2cnn3C(=O)OC(C)(C)C)c(C=O)n1 [Compound 86, tert-butyl 4-((2-formyl-6-methylpyridin-3-yloxy)methyl)-1H-indazole-1-carboxylate]	++ (a delta p50% of between 30 and 50)	+ (a delta R of between 0 and 30)
Cc1ccc(OCc2ccc3cnn(C)c3c2)c(C=O)n1 [Compound 91, 6-methyl-3-((1-methyl-1H-indazol-6-yl)methoxy)picolinaldehyde]	++ (a delta p50% of between 30 and 50)	+++ (a delta R of 50 or greater)
Cc1ccc(OCc2cccc3ncccc23)c(C=O)n1 [Compound 119, 6-methyl-3-(quinolin-5-ylmethoxy)picolinaldehyde]	++ (a delta p50% of between 30 and 50)	++ (a delta R of between 30 and 50)
COc1cc(C=O)c(OCc2cccnc2-c2cnn(C)c2)cn1 [Compound 127, 2-methoxy-5-((2-(1-methyl-1H-pyrazol-4-yl)pyridin-3-yl)methoxy)isonicotinaldehyde]	+ (a delta p50% of between 0 and 29)	–
COc1cc(C=O)c(OCc2cccnc2-c2cn[nH]c2)cn1 [Compound 128, 5-((2-(1H-pyrazol-4-yl)pyridin-3-yl)methoxy)-2-methoxyisonicotinaldehyde]	+ (a delta p50% of between 0 and 29)	–
COc1cc(C=O)c(OCc2cccnc2-n2cccn2)cn1 [Compound 134, 5-((2-(1H-pyrazol-1-yl)pyridin-3-yl)methoxy)-2-methoxyisonicotinaldehyde]	++ (a delta p50% of between 30 and 50)	+ (a delta R of between 0 and 30)
Cc1ccc(OCc2cccnc2-n2cccn2)c(C=O)n1 [Compound 135, 3-((2-(1H-pyrazol-1-yl)pyridin-3-yl)methoxy)-6-methylpicolinaldehyde]	+ (a delta p50% of between 0 and 29)	–
Cc1ccc(OCc2cccnc2)c(C=O)n1 [Compound 136, 6-methyl-3-(pyridin-3-ylmethoxy)picolinaldehyde]	+ (a delta p50% of between 0 and 29)	–
COC(=O)c1cc(COc2cnc(OC)cc2C=O)c2nccn2c1 [Compound 137, methyl 8-(((4-formyl-6-methoxypyridin-3-yl)oxy)methyl)imidazo[1,2-a]pyridine-6-carboxylate]	+ (a delta p50% of between 0 and 29)	–
COC(=O)c1cc(COc2cnc(OC)cc2C=O)c2nc(Br)cn2c1 [Compound 138, methyl 2-bromo-8-(((4-formyl-6-methoxypyridin-3-yl)oxy)methyl)imidazo[1,2-a]pyridine-6-carboxylate]	+ (a delta p50% of between 0 and 29)	–
Cc1ccc(OCc2cccn3cncc23)c(C=O)n1 [Compound 139, 3-(imidazo[1,5-a]pyridin-8-ylmethoxy)-6-methylpicolinaldehyde]	+ (a delta p50% of between 0 and 29)	–
COC(=O)c1cncc(COC(=O)c2cncc(COc3cnc(OC)cc3C=O)c2)c1 [Compound 141, (5-(methoxycarbonyl)pyridin-3-yl)methyl 5-(((4-formyl-6-methoxypyridin-3-yl)oxy)methyl)nicotinate]	+ (a delta p50% of between 0 and 29)	–
COc1cc(C=O)c(OCc2cccnc2-c2c(C)cnn2C)cn1 [Compound 142, 5-((2-(1,4-dimethyl-1H-pyrazol-5-yl)pyridin-3-yl)methoxy)-2-methoxyisonicotinaldehyde]	+ (a delta p50% of between 0 and 29)	–
COc1cc(C=O)c(OCc2cccnc2-c2cccnc2)cn1 [Compound 161, 5-([2,3′-bipyridin]-3-ylmethoxy)-2-methoxyisonicotinaldehyde]	++ (a delta p50% of between 30 and 50)	+ (a delta R of between 0 and 30)
COCCn1nccc1-c1ncccc1COc1cnc(OC)cc1C=O [Compound 172, 2-methoxy-5-((2-(1-(2-methoxyethyl)-1H-pyrazol-5-yl)pyridin-3-yl)methoxy)isonicotinaldehyde]	++ (a delta p50% of between 30 and 50)	+ (a delta R of between 0 and 30)
COc1cc(C=O)c(OCc2cccnc2-c2ccnn2COCC[Si](C)(C)C)cn1 [Compound 193, 2-methoxy-5-((2-(1-((2-(trimethylsilyl)ethoxy)methyl)-1H-pyrazol-5-yl)pyridin-3-yl)methoxy)isonicotinaldehyde]	++ (a delta p50% of between 30 and 50)	+ (a delta R of between 0 and 30)
